This experiment has as its system PKB Ser473 phosphorylation in Rat1-myr-HA-p110 delta cells. In words: Reverse protein array, PKB Ser473 phosphorylation in Rat1-myr-HA-p110 delta cells. Format: cell-based. The following applies: Rattus norvegicus, 0.5 h, 30 minutes compound incubation, read-out: p-PKB/IC50_delta.

This is an account of results in patent US20100311714A1, “1H-IMIDAZO[4,5-c]QUINOLINONE COMPOUNDS” (priority 2009, published 2010).

For the compound `Cc1cc(F)ncc1-n1c(=O)n(C)c2cnc3ccc(-c4cnc(N)c(C(F)(F)F)c4)cc3c21` [Example 16.1, 8-(6-Amino-5-trifluoromethyl-pyridin-3-yl)-1-(6-fluoro-4-methyl-pyridin-3-yl)-3-methyl-1,3-dihydro-imidazo[4,5-c]quinolin-2-one], the IC50 is 42.9 nM. Consider `CCNc1cc(-c2ccc3ncc4c(c3c2)n(-c2cnc(F)cc2C)c(=O)n4C)cnc1C` [Example 16.2, 8-(5-Ethylamino-6-methyl-pyridin-3-yl)-1-(6-fluoro-4-methyl-pyridin-3-yl)-3-methyl-1,3-dihydro-imidazo[4,5-c]quinolin-2-one], for which the IC50 came to 63.3 nM.

On to `CNc1ncc(-c2ccc3ncc4c(c3c2)n(-c2cnc(F)cc2C)c(=O)n4C)cn1` [Example 16.3, 1-(6-Fluoro-4-methyl-pyridin-3-yl)-3-methyl-8-(2-methylamino-pyrimidin-5-yl)-1,3-dihydro-imidazo[4,5-c]quinolin-2-one], for which the IC50 was found to be 304 nM. Turning to `CNc1ccc(-c2ccc3ncc4c(c3c2)n(-c2cnc(F)cc2C)c(=O)n4C)cn1` [Example 16.4, 1-(6-Fluoro-4-methyl-pyridin-3-yl)-3-methyl-8-(6-methylamino-pyridin-3-yl)-1,3-dihydro-imidazo[4,5-c]quinolin-2-one], the IC50 is 408 nM.

`Cc1cc(F)ncc1-n1c(=O)n(C)c2cnc3ccc(-c4cnc5c(ccn5C)c4)cc3c21` [Example 16.5, 1-(6-Fluoro-4-methyl-pyridin-3-yl)-3-methyl-8-(1-methyl-1H-pyrrolo[2,3-b]pyridin-5-yl)-1,3-dihydro-imidazo[4,5-c]quinolin-2-one]: the IC50 is 407 nM. For `CCOc1ccc(-c2ccc3ncc4c(c3c2)n(-c2cncc(C)c2)c(=O)n4C)cn1` [Example 17.1, 8-(6-Ethoxy-pyridin-3-yl)-3-methyl-1-(5-methyl-pyridin-3-yl)-1,3-dihydro-imidazo[4,5-c]quinolin-2-one] the value was 412 nM; for `CCNc1cc(-c2ccc3ncc4c(c3c2)n(-c2ccc(OC)nc2Cl)c(=O)n4C)cnc1C` [Example 18.1, 1-(2-Chloro-6-methoxy-pyridin-3-yl)-8-(5-ethylamino-6-methyl-pyridin-3-yl)-3-methyl-1,3-dihydro-imidazo[4,5-c]quinolin-2-one], less than 4.57 nM. For `COc1ccc(-n2c(=O)n(C)c3cnc4ccc(-c5cnc(N(C)C)nc5)cc4c32)c(Cl)n1` [Example 18.3, 1-(2-Chloro-6-methoxy-pyridin-3-yl)-8-(2-dimethylamino-pyrimidin-5-yl)-3-methyl-1,3-dihydro-imidazo[4,5-c]quinolin-2-one] the value was 90.7 nM; for `CNc1cc(-c2ccc3ncc4c(c3c2)n(-c2ccc(N(C)C)nc2C)c(=O)n4C)cnc1C` [Example 19.2, 1-(6-Dimethylamino-2-methyl-pyridin-3-yl)-3-methyl-8-(6-methyl-5-methylamino-pyridin-3-yl)-1,3-dihydro-imidazo[4,5-c]quinolin-2-one], less than 4.57 nM. In the case of `CCOc1ccc(-c2ccc3ncc4c(c3c2)n(-c2ccc(N(C)C)nc2C)c(=O)n4C)cn1` [Example 19.3, 1-(6-Dimethylamino-2-methyl-pyridin-3-yl)-8-(6-ethoxy-pyridin-3-yl)-3-methyl-1,3-dihydro-imidazo[4,5-c]quinolin-2-one], the IC50 turned out to be 74.7 nM. Under `COc1cc(-c2ccc3ncc4c(c3c2)n(-c2ccc(N(C)C)nc2C)c(=O)n4C)cnc1CO` [Example 19.4, 1-(6-Dimethylamino-2-methyl-pyridin-3-yl)-8-(6-hydroxymethyl-5-methoxy-pyridin-3-yl)-3-methyl-1,3-dihydro-imidazo[4,5-c]quinolin-2-one] stands 74.5 nM.

With `Cc1nc(N(C)C)ccc1-n1c(=O)n(C)c2cnc3ccc(-c4cncc(N)c4)cc3c21` [Example 19.5, 8-(5-Amino-pyridin-3-yl)-1-(6-dimethylamino-2-methyl-pyridin-3-yl)-3-methyl-1,3-dihydro-imidazo[4,5-c]quinolin-2-one], the IC50 worked out at 46.4 nM. For `COCC(=O)Nc1ccc(-n2c(=O)n(C)c3cnc4ccc(-c5cncc(N)c5)cc4c32)c(C)n1` [Example 20.1, N-{5-[8-(5-Amino-pyridin-3-yl)-3-methyl-2-oxo-2,3-dihydro-imidazo[4,5-c]quinolin-1-yl]-6-methyl-pyridin-2-yl}-2-methoxy-acetamide] the value was 194 nM.

Consider `CCOc1ccc(-c2ccc3ncc4c(c3c2)n(-c2ccc(NC(=O)COC)nc2C)c(=O)n4C)cn1` [Example 20.2, N-{5-[8-(6-Ethoxy-pyridin-3-yl)-3-methyl-2-oxo-2,3-dihydro-imidazo[4,5-c]quinolin-1-yl]-6-methyl-pyridin-2-yl}-2-methoxy-acetamide], for which the IC50 amounted to 326 nM. Under `CNc1ncc(-c2ccc3ncc4c(c3c2)n(-c2ccc(NC(=O)COC)nc2C)c(=O)n4C)cn1` [Example 20.3, 2-Methoxy-N-{6-methyl-5-[3-methyl-8-(2-methylamino-pyrimidin-5-yl)-2-oxo-2,3-dihydro-imidazo[4,5-c]quinolin-1-yl]-pyridin-2-yl}-acetamide] stands 218 nM.

Consider `CNc1ccc(-c2ccc3ncc4c(c3c2)n(-c2ccc(NC(=O)COC)nc2C)c(=O)n4C)cn1` [Example 20.4, 2-Methoxy-N-{6-methyl-5-[3-methyl-8-(6-methylamino-pyridin-3-yl)-2-oxo-2,3-dihydro-imidazo[4,5-c]quinolin-1-yl]-pyridin-2-yl}-acetamide], for which the IC50 turned out to be 197 nM. `COCC(=O)Nc1ccc(-n2c(=O)n(C)c3cnc4ccc(-c5cncc(OC(C)C)c5)cc4c32)c(C)n1` [Example 20.5, N-{5-[8-(5-Isopropoxy-pyridin-3-yl)-3-methyl-2-oxo-2,3-dihydro-imidazo[4,5-c]quinolin-1-yl]-6-methyl-pyridin-2-yl}-2-methoxy-acetamide]: the IC50 was 352 nM. Consider `COCCOc1ccc(-n2c(=O)n(C)c3cnc4ccc(-c5cncc(N6CCC6)c5)cc4c32)c(C)n1` [Example 22.2, 8-(5-Azetidin-1-yl-pyridin-3-yl)-1-[6-(2-methoxy-ethoxy)-2-methyl-pyridin-3-yl]-3-methyl-1,3-dihydro-imidazo[4,5-c]quinolin-2-one], for which the IC50 stood at 83.9 nM.

As for `COCCOc1ccc(-n2c(=O)n(C)c3cnc4ccc(-c5cnc(COC)c(OC)c5)cc4c32)c(C)n1` [Example 22.3, 1-[6-(2-Methoxy-ethoxy)-2-methyl-pyridin-3-yl]-8-(5-methoxy-6-methoxymethyl-pyridin-3-yl)-3-methyl-1,3-dihydro-imidazo[4,5-c]quinolin-2-one], the IC50 was 210 nM.

On to `Cc1nc(N2CC(F)(F)C2)ccc1-n1c(=O)n(C)c2cnc3ccc(-c4cncc(C(C)(C)O)c4)cc3c21` [Example 24.2, 1-[6-(3,3-Difluoro-azetidin-1-yl)-2-methyl-pyridin-3-yl]-8-[5-(1-hydroxy-1-methyl-ethyl)-pyridin-3-yl]-3-methyl-1,3-dihydro-imidazo[4,5-c]quinolin-2-one], for which the IC50 turned out to be 30 nM.

`CCNc1cc(-c2ccc3ncc4c(c3c2)n(-c2ccc(N3CC(F)(F)C3)nc2C)c(=O)n4C)cnc1CO` [Example 24.3, 1-[6-(3,3-Difluoro-azetidin-1-yl)-2-methyl-pyridin-3-yl]-8-(5-ethylamino-6-hydroxymethyl-pyridin-3-yl)-3-methyl-1,3-dihydro-imidazo[4,5-c]quinolin-2-one]: the IC50 amounted to 8.1 nM. Turning to `CNc1ccc(-c2ccc3ncc4c(c3c2)n(-c2ccc(N3CCCC3)nc2C)c(=O)n4C)cn1` [Example 25.1, 3-Methyl-8-(6-methylamino-pyridin-3-yl)-1-(2-methyl-6-pyrrolidin-1-yl-pyridin-3-yl)-1,3-dihydro-imidazo[4,5-c]quinolin-2-one], the IC50 is 26 nM.

For the compound `Cc1nc(N2CCC(O)C2)ccc1-n1c(=O)n(C)c2cnc3ccc(-c4cncc(OC(C)C)c4)cc3c21` (stereo not shown) [Example 27.1, 1-[6-(3-Hydroxy-pyrrolidin-1-yl)-2-methyl-pyridin-3-yl]-8-(5-isopropoxy-pyridin-3-yl)-3-methyl-1,3-dihydro-imidazo[4,5-c]quinolin-2-one], the IC50 was 64.5 nM. For `CNc1cc(-c2ccc3ncc4c(c3c2)n(-c2ccc(C(F)(F)F)nc2C)c(=O)n4C)cnc1CO` [Example 33.2, 8-(6-Hydroxymethyl-5-methylamino-pyridin-3-yl)-3-methyl-1-(2-methyl-6-trifluoromethyl-pyridin-3-yl)-1,3-dihydro-imidazo[4,5-c]quinolin-2-one] the value was 28.2 nM; for `Cc1nc(N2CC(F)(F)C(F)(F)C2)ccc1-n1c(=O)n(C)c2cnc3ccc(-c4cncc(C(C)(C)O)c4)cc3c21` [Example 35.1, 8-[5-(1-Hydroxy-1-methyl-ethyl)-pyridin-3-yl]-3-methyl-1-[2-methyl-6-(3,3,4,4-tetrafluoro-pyrrolidin-1-yl)-pyridin-3-yl]-1,3-dihydro-imidazo[4,5-c]quinolin-2-one], 25.5 nM.
